Patent US9670217B2, “Process for preparing chlorins and their pharmaceutical uses” (UNIVERSIDADE DE COIMBRA, priority 2008, dated 2017)
Where “and” joins values, the source holds several entries; their conditions need not be identical. Equal values may be shown once.

Tests used:
[1] = Fluorescence quantum yield; type: physicochemical; settings: ethanol
Experimental: The absorptions of both reference and sample solutions were matched at ca 0.2 at the excitation wavelength of 515.5 nm, and the solutions were diluted by a factor 10 before collecting the fluorescence. The fluorescence quantum yield was obtained from the ratio of the fluorescence bands of the sample vs the reference, multiplied by the fluorescence quantum yield of the reference, 0.012 according to [12], after correction for the difference of refractive indexes of ethanol and toluene.
This is indicative of little aggregation between the molecules, which exist mostly as monomers at these concentrations in the solvents studied. Table 1 presents typical red and infrared molar absorption coefficients (εmax) and wavelength maxima. The same table also presents representative fluorescence quantum yields (ΦF) of Luzitins. The fluorescence quantum yields decrease of these molecules decrease in the presence of chlorine substituents, a fingerprint of the heavy atom effect expected for such molecules.

[2] = test system: CT26 (murine colon carcinoma); assay: Cell photosensitization, 748 nm diode laser, resazurin; type: cell-based, mouse; settings: for concentration of sensitizer required to kill 90% of cells (LD90): 6 J/cm^2 diode laser irradiation at 28.5 mW
[3] = test system: HT-29 (human adenocarcinoma); assay: as above; type: cell-based; settings: for concentration of sensitizer required to kill 90% of cells (LD90): 6 J/cm^2 diode laser irradiation at 28.5 mW
[4] = test system: PC-3 (human prostate carcinoma); assay: Cytotoxicity in the dark, resazurin assay; type: cell-based
Experimental: (§1) The cell lines employed in laser irradiation were the HT-29 (human colon carcinoma), PC-3 (human prostate carcinoma), SW2 (human small cell lung cancer), A-549 (human non-small cell lung cancer). S91/I3 (mouse melanoma) and CT26 (mouse colon carcinoma). They were used both for cytotoxicity and photocytotoxicity experiments. PC-3. SW2 and S91113 cells were cultured in RPMI-1640 medium (Sigma-Aldrich, Steinheim, Germany) and HT-29, A-549 and CT26 cells were cultured in Dulbecco's Modified Eagle Medium (DMEM) (Cambrex Bioscience, Verviers, Belgium). Both cell culture mediums were supplemented with 10% heat-inactivated Fetal Bovine Serum (FBS) (Cambrex Bioscience, Verviers, Belgium) and 100 IU/ml penicillin-100 μg/ml streptomycin (Cambrex Bioscience, Verviers, Belgium). The DMEM medium used for CT26 cells was also supplemented with HEPES 10 mM. Cell lines were maintained in 75 cm^2 flasks (Orange Scientific, Braine-l'Alleud, Belgium) at 37° C. in humidified atmosphere with 5% CO2. For the in vitro studies, cells at 85-90% confluence, were detached with Trypsin-Versene-EDTA solution (Cambrex Bioscience, Verviers, Belgium), counted and seeded in flat-bottom 96-well plates at the desired densities.
(§2) Cell viability assay. In the end of the experiences cell viability was evaluated by the resazurin reduction assay. Briefly, resazurin (Sigma-Aldrich, Steinhelm, Germany) stock solution (0.1 mg/ml in phosphate buffer saline (PBS) pH 7.4) was diluted 10% in culture medium without FBS or antibiotics and 200 μl were added to the cells in each well. Plates were incubated for 3-4 h at 37° C. The absorbance values of each well were measured at 540 nm and 630 nm using a microplate reader Multiskan Ex (Thermo-Electron Corporation, Vartaa, Finland).
(§3) Cytotoxicity. Cells were seeded in flat-bottom 96-well plates (Orange Scientific, Braine-l'Alleud, Belgium) in 100 μl of culture medium and were allowed to adhere overnight. The photosensitizer was added to the cells (diluted in 100 μl culture medium) at final concentrations between 0.01 and 1 mM. Each concentration was tested in quadruplicate. The incubation periods in the dark at 37° C. were two times the doubling time for the tested cell line. After the incubation the cell viability was evaluated. In parallel control experiments, cells were incubated without the drug. Cytotoxicity was quantified by expressing cell death relatively to untreated cells (% of control cells). The results were plotted as dose response curves (% of cell death as a function of the concentration of the DRUG), which allow the determination of the concentration that inhibit 50% of cell growth (IC50).

[5] = test system: PC-3 (human prostate carcinoma); assay: Cell photosensitization, 748 nm diode laser, resazurin; type: cell-based; settings: for concentration of sensitizer required to kill 90% of cells (LD90): 6 J/cm^2 diode laser irradiation at 28.5 mW
[6] = test system: A-549 (human non-small cell lung carcinoma); assay: as above; type: cell-based; settings: 6 J/cm^2 diode laser irradiation at 28.5 mW
[7] = test system: CT26 (mouse colon carcinoma); assay: Cytotoxicity in the dark, resazurin assay; type: cell-based
Experimental: The cell lines employed in laser irradiation were the HT-29 (human colon carcinoma), PC-3 (human prostate carcinoma), SW2 (human small cell lung cancer), A-549 (human non-small cell lung cancer). S91/I3 (mouse melanoma) and CT26 (mouse colon carcinoma). They were used both for cytotoxicity and photocytotoxicity experiments. PC-3. SW2 and S91113 cells were cultured in RPMI-1640 medium (Sigma-Aldrich, Steinheim, Germany) and HT-29, A-549 and CT26 cells were cultured in Dulbecco's Modified Eagle Medium (DMEM) (Cambrex Bioscience, Verviers, Belgium). […] For the in vitro studies, cells at 85-90% confluence, were detached with Trypsin-Versene-EDTA solution (Cambrex Bioscience, Verviers, Belgium), counted and seeded in flat-bottom 96-well plates at the desired densities.
Cell viability assay. In the end of the experiences cell viability was evaluated by the resazurin reduction assay. […] The absorbance values of each well were measured at 540 nm and 630 nm using a microplate reader Multiskan Ex (Thermo-Electron Corporation, Vartaa, Finland).
Cytotoxicity. […] After the incubation the cell viability was evaluated. […] Cytotoxicity was quantified by expressing cell death relatively to untreated cells (% of control cells). […]

[8] = test system: S91/I3 (mouse melanoma); assay: Cytotoxicity in the dark, resazurin assay; type: cell-based; settings: S91I3, incubation 40 h in the dark; read-out: IC50 dark toxicity
Experimental: as §1, §2, §3

[9] = test system: SW2 (human small cell lung cancer); assay: Cytotoxicity in the dark, resazurin assay; type: cell-based; settings: SW2, incubation 48 h in the dark; read-out: IC50 dark toxicity
Experimental: as §1, §2, §3

[10] = Bacteriochlorin pharmacokinetics and biodistribution following ip administration, S91 tumor-bearing mice; settings: 10 mg/kg ip
[11] = In vivo toxicity in the dark; set-up: species or system DBA/2 mice; settings: for sensitivity to light: first 6 days
Excerpt: The mice used in the present study were form two sources. Dark toxicity, biodistribution and farmacokinetic studies employed DBA/2 mice, weighing 20-30 g, from the animal breeding facility at the Faculty of Biochemistry, Biophysics and Biotechnology, Jagiellonian University, Krakow. The mice were kept on a standard laboratory diet with free access to drinking water. The use of such animals for experimental purposes was approved by the Jagiellonian University Committee for Ethics of Experiments on Animals (decision No. 384/99). Such mice were also employed in PDT.
The mice were divided into the following experimental groups:
The solutions of Luzitin-Cl (0.5 ml) were injected subcutaneously and for 30 days the animals were closely observed. […] They manifested such sensitivity by moving away from light sources directly pointed at them. […] After 30 days the animals were anaesthetized using Morbital (Biowet, Poland), their organs and tissue samples were excised, and blood morphology as well as histology of selected organs tests was performed.

[12] = test system: HT-29 (human colon carcinoma); assay: Cytotoxicity in the dark, resazurin assay; type: cell-based; settings: HT-29, dark
Experimental: as §1, §2, §3

O=S(=O)(O)c1ccc(Cl)c(-c2c3nc(c(-c4c(Cl)ccc(S(=O)(=O)O)c4Cl)c4ccc([nH]4)c(-c4c(Cl)ccc(S(=O)(=O)O)c4Cl)c4nc(c(-c5c(Cl)ccc(S(=O)(=O)O)c5Cl)c5ccc2[nH]5)CC4)CC3)c1Cl [Luzitin-Cl2, 5,10,15,20-tetrakis(2,6-dichloro-3-sulfonylphenyl)bacteriochlorin]
ΦF (fluorescence quantum yield) [1]: 0.0062
cell kill ([2]; 10 μM, laser light dose 6 J/cm^2, incubation 18 hours): 100%
concentration of sensitizer required to kill 90% of cells (LD90) [3]: 50 µM
highest concentration that causes relatively no effect in viability in the dark ([4]; PC-3, dark): 0.05 mM
cell kill ([5]; 20 μM, laser light dose 6 J/cm^2, incubation 24 hours): 100%
concentration of sensitizer required to kill 90% of cells (LD90) [5]: 20 µM

CCNS(=O)(=O)c1ccc(Cl)c(-c2c3nc(c(-c4c(Cl)ccc(S(=O)(=O)NCC)c4Cl)c4ccc([nH]4)c(-c4c(Cl)ccc(S(=O)(=O)NCC)c4Cl)c4nc(c(-c5c(Cl)ccc(S(=O)(=O)NCC)c5Cl)c5ccc2[nH]5)CC4)CC3)c1Cl [Luzitin-Cl2Et, 5,10,15,20-tetrakis(2,6-dichloro-3-N-ethylsulfamoylphenyl)bacteriochlorin]
ΦF (fluorescence quantum yield) [1]: 0.0081
concentration of sensitizer required to kill 90% of cells (LD90) [2]: 5 µM
concentration of sensitizer required to kill 90% of cells (LD90) [6]: 10 µM
concentration of sensitizer required to kill 90% of cells (LD90) [3]: 10 µM
concentration of sensitizer required to kill 90% of cells (LD90) [5]: 5 µM
highest concentration that causes relatively no effect in viability in the dark [7]: 50 µM

O=S(=O)(O)c1ccc(Cl)c(-c2c3nc(c(-c4cc(S(=O)(=O)O)ccc4Cl)c4ccc([nH]4)c(-c4cc(S(=O)(=O)O)ccc4Cl)c4nc(c(-c5cc(S(=O)(=O)O)ccc5Cl)c5ccc2[nH]5)CC4)CC3)c1 [Luzitin-Cl, 5,10,15,20-tetrakis(2-chloro-5-sulfonylphenyl)bacteriochlorin]
ΦF (fluorescence quantum yield) [1]: 0.0403
IC50 [8]: 500 µM
IC50 [9]: 400 µM
IC50 ([4]; PC-3, incubation 72 h in the dark, read-out: IC50 dark toxicity): 600 µM
accumulation in the skin [10]: negligible
time to clearance from most of the organs [10]: 24 h
concentration in tumor relative to muscle ([10]; one day after administration): 3 times
sensitivity to light ([11]; 15 mg/kg subcutaneous, some animals): slight sensitivity
sensitivity to light ([11]; 20 mg/kg subcutaneous): revealed sensitivity to the light
body mass changes ([11]; 2-20 mg/kg subcutaneous, 30 days): no significant mass changes were observed
blood morphology and histology of selected organs ([11]; 2-20 mg/kg subcutaneous, after 30 days): No changes were observed in the blood or in organs

CNS(=O)(=O)c1ccc(F)c(-c2c3nc(c(-c4cc(S(=O)(=O)NC)ccc4F)c4ccc([nH]4)c(-c4cc(S(=O)(=O)NC)ccc4F)c4nc(c(-c5cc(S(=O)(=O)NC)ccc5F)c5ccc2[nH]5)CC4)CC3)c1 [Luzitin-FMet, 5,10,15,20-tetrakis(2-fluoro-5-N-methylsulfamoylphenyl)bacteriochlorin]
ΦF (fluorescence quantum yield) [1]: 0.0589
concentration of sensitizer required to kill 90% of cells (LD90) [2]: 1.0 µM
concentration of sensitizer required to kill 90% of cells (LD90) [6]: 0.5 µM
cell kill ([3]; 1 μM, laser light dose 6 J/cm^2, incubation 18 hours): 100%
concentration of sensitizer required to kill 90% of cells (LD90) [3]: 0.5 µM and 1 µM
highest concentration that causes relatively no effect in viability in the dark [12]: 50 µM
concentration of sensitizer required to kill 90% of cells (LD90) [5]: 0.5 µM
